For data set [1], the system named is HCV. The data set is described as follows: HCV replication. The class given is cell-based, hepatitis C virus.
The next data set relates to HCMV. The data set is described as follows: HCMV replication / titer in infected fibroblasts. Type of data set: cell-based.
Data set [2] deals with herpes simplex virus-1 (HSV-1). Description: HSV-1 replication. Type of data set: cell-based. The following applies: nanomolar concentrations.
Another data set relates to influenza A. Description: influenza A replication. Type of data set: cell-based.
The conditions of data set [3]: cited from earlier work.
Data set [4] concerns HCV. Description: HCV replication in cell cultures, ACC inhibitor combined with HCV protease inhibitor (Example 1). The class given is cell-based. Here is the method: HCV encoded proteolytic activity is required for infection and replication. The present example concerns the combined use of an ACC inhibitors (e.g., TOFA) and an HCV protease inihibitor (e.g., boceprevir) to antagonize viral replication. In each assay, various concentrations of TOFA are combined with various concentrations of boceprevir and cell cultures exposed to HCV are assayed for virus replication. In one series of tested combinations, a physiological concentration of boceprivir is held constant as the dose of TOFA is increased. Control cultures are treated with no drug, boceprivir alone or the various concentrations of TOFA alone. Samples are taken at 24, 48, 72 and 96 hours after initiation of drug treatment. The antiviral effect of boceprivir plus each concentration of TOFA is then compared to the activity of boceprivir alone or the various concentrations of TOFA alone. The relative toxicity of the different combinations is also assayed.

Another data set deals with T1, hELOVL6 (Homo sapiens, UniProt Q9H5J4).
T1 sequence (Q9H5J4 1-265): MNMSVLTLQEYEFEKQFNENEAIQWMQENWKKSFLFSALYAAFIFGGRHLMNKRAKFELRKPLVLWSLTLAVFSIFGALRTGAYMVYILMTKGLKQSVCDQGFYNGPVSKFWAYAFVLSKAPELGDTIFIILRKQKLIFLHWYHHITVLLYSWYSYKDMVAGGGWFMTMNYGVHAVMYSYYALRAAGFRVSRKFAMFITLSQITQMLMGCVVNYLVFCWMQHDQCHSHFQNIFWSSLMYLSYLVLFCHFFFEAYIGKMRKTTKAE
The note with it: read-out: hELOVL6 IC50; cited from earlier work.

In another data set the target is T2, hELOVL3 (Homo sapiens, UniProt Q9HB03).
T2 sequence (Q9HB03 1-270): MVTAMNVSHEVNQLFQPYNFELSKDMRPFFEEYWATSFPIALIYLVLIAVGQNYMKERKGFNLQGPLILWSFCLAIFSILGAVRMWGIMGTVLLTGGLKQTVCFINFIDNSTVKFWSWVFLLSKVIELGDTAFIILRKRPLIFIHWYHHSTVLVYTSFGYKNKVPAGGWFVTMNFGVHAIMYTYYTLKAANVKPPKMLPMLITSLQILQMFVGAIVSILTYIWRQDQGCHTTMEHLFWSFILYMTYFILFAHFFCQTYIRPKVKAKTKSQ
The note with it: cited from earlier work.

For another data set, the system named is MDCK cells. The data set is described as follows: host cell toxicity in influenza A experiment. Type of data set: cell-based. The following applies: 0.5 mM and 1 mM, 24 hours.
The next data set concerns adenovirus. The data set is described as follows: adenovirus replication / titer. The following applies: for decrease of adenovirus titer: MRC2 cells. Type of data set: cell-based.
Data set [5] relates to triacylglycerol (TG) synthesis. The following applies: cited from earlier work.
Data set [6] deals with cholesterol ester (CE) synthesis. The following applies: cited from earlier work.

The text below walks through data of patent publication US20150139949A1, “ANTI-VIRAL COMBINATION THERAPY” (priority 2011, published 2015).

SMILES strings stand for the structures. Where two headings read alike, the source gives them in different places.

For `CCC/C=C/C/C=C/C=C/C=N/NN=O` [triacsin C], the “inhibition of HCV replication” value in the data set with HCV [1] (nanomolar concentrations) is on record as “inhibit the replication”. Moreover, the “inhibition of HCMV replication” value in the data set with HCMV (nanomolar concentrations) is “inhibit the replication”. Further, the “inhibition of HSV-1 replication” value in data set [2] was “inhibit the replication”. In addition, the “inhibition of influenza A replication” value in the data set with influenza A (nanomolar concentrations) is recorded as “inhibit the replication”.

For `N=C(N)NCc1cccc([131I])c1` [MIBG, meta-iodobenzylguanidine], in the data set with HCMV (50 μM, infected MRCS fibroblasts), the “reduction of HCMV titer” value is on record as “about 70%”.

As for `CCCCCCCCCCCCCCOc1ccc(C(=O)O)o1` [TOFA, 5-(tetradecyloxy)-2-furoic acid], the “inhibition of HCV replication” value with HCV [1] was “inhibited the replication”. The “inhibition of HCMV replication” value in the data set on HCMV is given as “inhibited the replication”. The adverse effects result in data set [3] (rat, in vivo, 100 mg/kg/day) is given as “no adverse effects are observed”. Moreover, the teratogenicity entry in data set [3] (rat, in vivo, 150 mg/kg/day) is reported as “not teratogenic”. Moreover, the “oral LD50” value in [3] (rats, oral) was “greater than 5,000 mg/kg”. In addition, in the data set with HCV [4] (given TOFA concentration, boceprivir also present), the “magnitude of the therapeutic effect” value is “increased”. Besides, the “concentration of TOFA required to produce a 10-fold reduction in HCV replication” value with HCV [4] (in the presence of a pharmacologically acceptable concentration of boceprivir) is listed as “markedly reduced”.

With `O=C(Nc1ccc(C(F)(F)F)cc1)N1C2CCC1CC(S(=O)(=O)c1ccccn1)C2` (stereo not drawn) [endo-1w], the results for the half-inhibitory concentration (IC50) on hELOVL6 and at hELOVL3 were 79 nM and 6940 nM, respectively.

`NOCC(=O)O` [AOAA, aminooxyacetic acid]: the host cell toxicity entry in the data set with MDCK cells is reported as “no evidence of host cell toxicity”. Further, in the data set on HCMV, the “inhibition of HCMV replication” value is “inhibited the replication”. The “decrease of HCMV replication” value in the data set on HCMV (0.5 mM) turned out to be 100 fold. The “decrease of influenza A replication” value in the data set with influenza A is “at least 1000 fold”. Besides, the “inhibition of influenza A replication” value with influenza A was “inhibited the replication”. Further, the “inhibition of adenovirus replication” value with adenovirus was “inhibited the replication”. In addition, the “decrease of adenovirus titer” value in the data set on adenovirus (0.5 mM) was found to be 20 fold; with adenovirus (1 mM), 500 fold.

Turning to `CCCCS(=O)(=O)N1C[C@H]2CC[C@@H]1[C@H](C(=O)Nc1ccc(OC)cc1)C2`, on hELOVL6, the IC50 (usually the concentration that gives 50% inhibition) was 1710 nM.

Consider `CC(C)Oc1ccc(NC(=O)[C@@H]2C[C@@H]3CC[C@H]2N(S(=O)(=O)c2cn(C)cn2)C3)cc1`, for which the values for the IC50 at hELOVL6 and on hELOVL3 were 220 nM and 1510 nM, respectively.

For `CCCCS(=O)(=O)N1CCC[C@@H](C(=O)Nc2ccc(OC(C)C)cc2)C1`, on hELOVL6, the IC50 is 930 nM.

Regarding `CCC(C)[C@@H]1C(=O)/C(=C(/O)[C@@H]2[C@@H]3[C@H](C)C[C@H](C)C[C@@H]3C=C[C@@H]2[C@]2(C)O[C@H]2C)C(=O)N1C` (stereo partly drawn) [PF-1052], in data set [5], the “inhibition of TG synthesis” value was “inhibits both CE and TG synthesis in a dose dependent manner”. In addition, the “inhibition of CE synthesis” value in data set [6] is “inhibits both CE and TG synthesis in a dose dependent manner”. Also, the “inhibition of HCMV replication” value in the data set on HCMV (10 μM) is recorded as “profoundly inhibits”.

`COC(=O)c1c2c(c3ccccc3c1O)OC(C)(C)C=C2` [rubimaillin]: in data set [6], the “inhibition of CE synthesis” value was “selectively inhibits CE synthesis”.
